# Like-named read-outs stand apart in the source and are kept apart here.
# Tests used:
# [1] = target: intracellular GCN2 (phosphorylation of the GCN2 substrate eIF2α) (Homo sapiens (Human), UniProt Q9P2K8); test: GCN2 Cellular Inhibition Assay (AlphaScreen SureFire P-eIF2α Ser51, borrelidin-treated U2OS cells); assay type: cell-based; details: 10 μM borrelidin, 1 h
# Description: Compounds can be screened for their ability to inhibit intracellular GCN2 using an AlphaScreen assay (Perkin Elmer) to detect phosphorylation of the GCN2 substrate eIF2α in borrelidin-treated cells. U2OS cells are plated at 5,000 cells per well in 384-well white polystyrene plates (Corning 3570) in McCoy's 5A media (GIBCO 26600-023) supplemented with 10% foetal bovine serum (SAFC 12103C), Penicillin/Streptomycin solution diluted 1:100 (Sigma P0781), and 2 mM L-glutamine (Sigma G7513), and allowed to adhere overnight at 37° C. in 5% CO2. Compounds are then added to the cell media from a final concentration of 40 μM in 4-fold serial dilutions. Borrelidin (FluoroChem M01440) is immediately added to the wells to a final concentration of 10 μM and the cells are incubated for 1 h at 37° C. in 5% CO2. After 1 h of treatment with borrelidin, the media is removed, and the cells are lysed with lysis buffer (TGR BioSceinces TGRLB) at ambient temperature.
# An AlphaScreen SureFire P-eIF2α (Ser51) assay kit (Perkin Elmer TGREIF2S) was used to measure levels of eIF2α phosphorylated on Serine 51. Anti-phosphorylated eIF2α Ser51 antibody-linked acceptor beads (TGR BioScience 6760617) are added to the cell homogenate (diluted 1:250 into a mixture of activation (TGR BioScience TGRAB) and reaction buffer (TGR BioScience TGREIF2S) prepared immediately before use). The plate is then incubated for 2 h at ambient temperature in the dark. Anti-eIF2α antibody-linked donor beads (TGR BioScience 6760617) were then added (diluted 1:100 in dilution buffer (TGR BioScience TGRDB) prepared immediately before use). The plate is then incubated overnight at ambient temperature in the dark.
# Plates are analyzed on an Alpha Technology-compatible PHERAstar FS plate reader (BMG Labtech Version 1.14) to quantify phosphorylated eIF2α Ser51 levels. The percentage inhibition of phosphorylated eIF2α is calculated by comparison to control wells stimulated with borrelidin alone.
# GCN2 kinase = GCN2 kinase (Homo sapiens (Human), UniProt Q9P2K8); test: GCN2 Enzyme Inhibition Assay (Transcreener ADP2 fluorescence polarization); assay type: biochemical; details: 280 μM ATP, 200 μM (RS)7 peptide, 4 nM GCN2, 25° C.; for Ki: Ki(app)
# In short: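 At 25 °C, GCN2 kinase (typical final concentration 4 nM) and (RS)7 peptide in Tris-HCl pH 7.5 buffer with MgCl2, NaCl and DTT were preincubated with compound for 10 min, then ATP was added for a 1 h reaction. ADP was read by FP with antibody/Alexa633 tracer. Non-linear tight-binding analysis gave IC50 and apparent Ki.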
# [2] = phosphorylated eIF2α Ser51, read-out: GCN2 Biomarker (IC50)
# [3] = GCN2 Biomarker (IC50), phosphorylated eIF2α Ser51
# Sequence of intracellular GCN2 (phosphorylation of the GCN2 substrate eIF2α) (Q9P2K8 whole entry): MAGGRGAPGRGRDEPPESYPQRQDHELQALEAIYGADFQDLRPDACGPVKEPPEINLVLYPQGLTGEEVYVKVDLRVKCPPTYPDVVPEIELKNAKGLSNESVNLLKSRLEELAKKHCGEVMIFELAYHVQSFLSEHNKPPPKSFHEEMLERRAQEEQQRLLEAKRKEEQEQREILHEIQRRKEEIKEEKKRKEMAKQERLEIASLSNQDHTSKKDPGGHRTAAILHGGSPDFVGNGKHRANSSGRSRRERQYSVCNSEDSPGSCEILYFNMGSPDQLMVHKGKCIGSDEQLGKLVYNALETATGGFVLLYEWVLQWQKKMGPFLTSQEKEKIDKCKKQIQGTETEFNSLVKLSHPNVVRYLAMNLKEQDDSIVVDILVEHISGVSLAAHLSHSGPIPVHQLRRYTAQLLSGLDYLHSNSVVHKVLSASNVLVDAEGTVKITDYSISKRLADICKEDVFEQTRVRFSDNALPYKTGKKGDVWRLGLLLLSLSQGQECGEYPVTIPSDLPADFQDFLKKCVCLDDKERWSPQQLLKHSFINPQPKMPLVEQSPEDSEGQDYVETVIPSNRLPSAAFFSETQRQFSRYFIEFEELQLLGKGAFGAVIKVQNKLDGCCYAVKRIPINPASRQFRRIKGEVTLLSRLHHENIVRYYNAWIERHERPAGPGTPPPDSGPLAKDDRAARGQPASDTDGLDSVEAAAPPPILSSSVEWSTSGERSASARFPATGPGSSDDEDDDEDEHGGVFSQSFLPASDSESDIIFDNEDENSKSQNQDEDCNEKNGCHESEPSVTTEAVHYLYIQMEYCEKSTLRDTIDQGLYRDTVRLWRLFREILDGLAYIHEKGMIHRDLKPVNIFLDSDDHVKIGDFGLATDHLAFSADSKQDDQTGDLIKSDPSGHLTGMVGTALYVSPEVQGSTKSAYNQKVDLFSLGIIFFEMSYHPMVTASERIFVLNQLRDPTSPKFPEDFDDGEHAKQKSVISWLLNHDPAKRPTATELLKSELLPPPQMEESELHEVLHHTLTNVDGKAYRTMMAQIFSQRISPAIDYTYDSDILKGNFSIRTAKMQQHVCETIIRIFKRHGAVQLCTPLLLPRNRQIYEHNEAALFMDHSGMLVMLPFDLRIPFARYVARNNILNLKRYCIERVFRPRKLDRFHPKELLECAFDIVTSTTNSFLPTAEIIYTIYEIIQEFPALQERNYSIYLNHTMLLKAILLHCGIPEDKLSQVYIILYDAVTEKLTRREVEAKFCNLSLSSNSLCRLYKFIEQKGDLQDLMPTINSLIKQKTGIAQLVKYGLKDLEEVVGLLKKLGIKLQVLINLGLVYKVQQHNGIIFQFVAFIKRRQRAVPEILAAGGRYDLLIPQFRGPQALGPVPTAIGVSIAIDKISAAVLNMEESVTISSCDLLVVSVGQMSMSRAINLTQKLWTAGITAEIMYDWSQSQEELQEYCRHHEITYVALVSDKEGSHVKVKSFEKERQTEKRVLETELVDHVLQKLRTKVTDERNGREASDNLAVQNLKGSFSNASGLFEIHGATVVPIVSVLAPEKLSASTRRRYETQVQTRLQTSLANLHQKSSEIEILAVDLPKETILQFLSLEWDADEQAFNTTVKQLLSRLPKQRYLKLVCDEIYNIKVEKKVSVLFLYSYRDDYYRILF
# Sequence of GCN2 kinase (Q9P2K8 whole entry): as above
smiles,measurement,setting,value
"Cc1[nH]ncc1[C@H]1C[C@@H](N=S(C)(C)=O)CN(c2ccnc(-c3cnc4ccc(C(F)(F)F)cn34)n2)C1 [I-342, dimethyl(((3R,5R)-5-(5-methyl-1H-pyrazol-4-yl)-1-(2-(6-(trifluoromethyl)imidazo[1,2-a]pyridin-3-yl)pyrimidin-4-yl)piperidin-3-yl)imino)-λ6-sulfanone]",IC50,[1]; [2],< 500 nM
same,IC50,GCN2 kinase,10 to 100 nM
"Cc1[nH]ncc1C1NCCN(c2ccnc(-c3cnc4ccc(C(F)(F)F)cn34)n2)C1C (stereo not shown) [I-321, 3-(4-(2-methyl-3-(5-methyl-1H-pyrazol-4-yl)piperazin-1-yl)pyrimidin-2-yl)-6-(trifluoromethyl)imidazo[1,2-a]pyridine]",IC50,[1]; [2],500 to 5000 nM
same,IC50,GCN2 kinase,10 to 100 nM
"CC(C)(C)c1ncc(CN2CCN(c3ccnc(-c4cnc5ccc(C(F)(F)F)cn45)n3)CC2c2cn[nH]c2)[nH]1 (stereo not shown) [I-373, 3-(4-(4-((2-(tert-butyl)-1H-imidazol-5-yl)methyl)-3-(1H-pyrazol-4-yl)piperazin-1-yl)pyrimidin-2-yl)-6-(trifluoromethyl)imidazo[1,2-a]pyridine]",IC50,[1]; [2],< 500 nM
same,IC50,GCN2 kinase,< 10 nM
"Cc1noc([C@H]2CN(c3ccnc(-c4cnc5cc(F)c(Cl)cn45)n3)C[C@@H](C)O2)n1 (relative stereo) [I-56, 6-Chloro-7-fluoro-3-{4-[cis-2-methyl-6-(3-methyl-[1,2,4]oxadiazol-5-yl)-morpholin-4-yl]-pyrimidin-2-yl}-imidazo[1,2-a]pyridine]",IC50,[1]; [3],500 to 5000 nM
same,Ki,GCN2 kinase,10 to 100 nM
"CS(=O)(=O)NC[C@@H]1CN(c2ccnc(-c3cnc4ccc(Cl)cn34)n2)CCO1 [I-19, N-[[(2S)-4-[2-(6-Chloroimidazo[1,2-a]pyridin-3-yl)pyrimidin-4-yl]morpholin-2-yl]methyl]methanesulfonamide]",IC50,[1]; [2],500 to 5000 nM
same,Ki,GCN2 kinase,10 to 100 nM
"Clc1ccc2ncc(-c3nccc(N4CC5CC5(c5ccccc5)C4)n3)n2c1 (stereo not shown) [I-84, 6-Chloro-3-[4-(1-phenyl-3-aza-bicyclo[3.1.0]hex-3-yl)-pyrimidin-2-yl]-imidazo[1,2-a]pyridine]",IC50,[1]; [2],> 5000 nM
same,Ki,GCN2 kinase,100 to 1000 nM
"CN(C)C(=O)C1CCCN(c2ccnc(-c3cnc4ccc(C(F)(F)F)cn34)n2)C1 (stereo not shown) [I-130, N,N-dimethyl-1-(2-(6-(trifluoromethyl)imidazo[1,2-a]pyridin-3-yl)pyrimidin-4-yl)piperidine-3-carboxamide]",IC50,[1]; [2],500 to 5000 nM
same,IC50,GCN2 kinase,10 to 100 nM
"CS(=O)(=O)NC[C@@H]1CN(c2nc(-c3cnc4ccc(C(F)(F)F)cn34)ns2)CCO1 [I-106, (S)—N-((4-(3-(6-(trifluoromethyl)imidazo[1,2-a]pyridin-3-yl)-1,2,4-thiadiazol-5-yl)morpholin-2-yl)methyl)methanesulfonamide]",IC50,[1]; [2],> 5000 nM
same,Ki,GCN2 kinase,10 to 100 nM
"Cc1[nH]ncc1[C@H]1C[C@H](N=S(C)(C)=O)CN(c2ccnc(-c3cnc4ccc(C(F)(F)F)cn34)n2)C1 [I-344, dimethyl(((3 S,5R)-5-(5-methyl-1H-pyrazol-4-yl)-1-(2-(6-(trifluoromethyl)imidazo[1,2-a]pyridin-3-yl)pyrimidin-4-yl)piperidin-3-yl)imino)-λ6-sulfanone]",IC50,[1]; [2],500 to 5000 nM
same,IC50,GCN2 kinase,100 to 1000 nM
"NS(=O)(=O)C1CCCN(c2ccnc(-c3cnc4ccc(C(F)(F)F)cn34)n2)C1 (stereo not shown) [I-242, 1-(2-(6-(trifluoromethyl)imidazo[1,2-a]pyridin-3-yl)pyrimidin-4-yl)piperidine-3-sulfonamide]",IC50,[1]; [2],> 5000 nM
same,IC50,GCN2 kinase,10 to 100 nM
"C[C@@H]1[C@@H](c2cn[nH]c2)N(C2COC2)CCN1c1ccnc(-c2cnc3ccc(C(F)(F)F)cn23)n1 [I-363, 3-(4-((2R,3R)-2-methyl-4-(oxetan-3-yl)-3-(1H-pyrazol-4-yl)piperazin-1-yl)pyrimidin-2-yl)-6-(trifluoromethyl)imidazo[1,2-a]pyridine]",IC50,[1]; [2],500 to 5000 nM
same,IC50,GCN2 kinase,100 to 1000 nM
"COCC1(CN2CCN(c3ccnc(-c4cnc5ccc(C(F)(F)F)cn45)n3)[C@H](C)[C@@H]2c2cn[nH]c2)CCC1 (stereo in doubt) [I-511, 4-[(2R,3 S)-4-{[1-(methoxymethyl)cyclobutyl]methyl}-2-methyl-3-(1H-pyrazol-4-yl)piperazin-1-yl]-2-[6-(trifluoromethyl)imidazo[1,2-a]pyridin-3-yl]pyrimidine]",IC50,[1]; [2],< 500 nM
same,IC50,GCN2 kinase,< 10 nM
"OCC(O)CN1CCN(c2ccnc(-c3cnc4ccc(C(F)(F)F)cn34)n2)CC1c1cn[nH]c1 (stereo not shown) [I-352, 3-(2-(1H-pyrazol-4-yl)-4-(2-(6-(trifluoromethyl)imidazo[1,2-a]pyridin-3-yl)pyrimidin-4-yl)piperazin-1-yl)propane-1,2-diol]",IC50,[1]; [2],500 to 5000 nM
same,IC50,GCN2 kinase,< 10 nM
"Cc1[nH]ncc1[C@H]1CN(c2nccc(-c3cnc4ccc(Cl)cn34)n2)C[C@H](C)O1 (stereo in doubt) [I-181, (2S,6S)-4-(4-(6-chloroimidazo[1,2-a]pyridin-3-yl)pyrimidin-2-yl)-2-methyl-6-(5-methyl-1H-pyrazol-4-yl)morpholine]",IC50,[1]; [2],500 to 5000 nM
same,IC50,GCN2 kinase,10 to 100 nM
"CS(=O)(=O)NC[C@@H]1CN(c2nccc(-c3cnc4ccc(C(F)F)cn34)n2)CCO1 [I-17, N-[[(2S)-4-[4-[6-(Difluoromethyl)imidazo[1,2-a]pyridin-3-yl]pyrimidin-2-yl]morpholin-2-yl]methyl]methanesulfonamide]",IC50,[1]; [2],< 500 nM
same,Ki,GCN2 kinase,< 10 nM
"O=C(Nc1cn[nH]c1)[C@H]1CCCN(c2ccnc(-c3cnc4cc(F)c(Cl)cn34)n2)C1 [I-58, (S)-1-[2-(6-Chloro-7-fluoro-imidazo[1,2-a]pyridine-3-yl)-pyrimidin-4-yl]-piperidine-3-carboxylic acid (1H-pyrazol-4-yl)-amide]",IC50,[1]; [3],500 to 5000 nM
same,Ki,GCN2 kinase,10 to 100 nM
"C[C@H]1CN(c2nccc(-c3cnc4ccc(C(F)(F)F)cn34)n2)CC(c2cc[nH]n2)O1 (stereo in doubt) [I-138, (2S,6R)-2-methyl-6-(1H-pyrazol-3-yl)-4-(4-(6-(trifluoromethyl)imidazo[1,2-a]pyridin-3-yl)pyrimidin-2-yl)morpholine]",IC50,[1]; [2],< 500 nM
same,IC50,GCN2 kinase,10 to 100 nM
"CC1(C)C[C@@H]1CN1CCN(c2ccnc(-c3cnc4ccc(C(F)(F)F)cn34)n2)C[C@H]1c1cn[nH]c1 [I-529, 3-(4-((R)-4-(((S)-2,2-dimethylcyclopropyl)methyl)-3-(1H-pyrazol-4-yl)piperazin-1-yl)pyrimidin-2-yl)-6-(trifluoromethyl)imidazo[1,2-a]pyridine]",IC50,[1]; [2],< 500 nM
same,IC50,GCN2 kinase,< 10 nM
"O=C(c1cnon1)N1CCN(c2ccnc(-c3cnc4ccc(C(F)(F)F)cn34)n2)CC1c1cn[nH]c1 (stereo not shown) [I-441, (2-(1H-pyrazol-4-yl)-4-(2-(6-(trifluoromethyl)imidazo[1,2-a]pyridin-3-yl)pyrimidin-4-yl)piperazin-1-yl)(1,2,5-oxadiazol-3-yl)methanone]",IC50,[1]; [2],> 5000 nM
same,IC50,GCN2 kinase,10 to 100 nM
"COCC1(CN2CCN(c3ccnc(-c4cnc5ccc(C(F)(F)F)cn45)n3)[C@@H](C)[C@@H]2c2cn[nH]c2)CCC1 [I-512, 4-[(2S,3 S)-4-{[1-(methoxymethyl)cyclobutyl]methyl}-2-methyl-3-(1H-pyrazol-4-yl)piperazin-1-yl]-2-[6-(trifluoromethyl)imidazo[1,2-a]pyridin-3-yl]pyrimidine]",IC50,[1]; [2],500 to 5000 nM
same,IC50,GCN2 kinase,100 to 1000 nM
"NC(=O)[C@H]1CCCN(c2nccc(-c3cnc4ccc(C(F)(F)F)cn34)n2)C1 [I-153, (S)-1-(4-(6-(trifluoromethyl)imidazo[1,2-a]pyridin-3-yl)pyrimidin-2-yl)piperidine-3-carboxamide]",IC50,[1]; [2],< 500 nM
same,IC50,GCN2 kinase,< 10 nM
"C[C@H]1CN(c2nccc(-c3cnc4ccc(C(F)F)cn34)n2)C[C@@H](CNS(C)(=O)=O)C1(F)F (stereo in doubt) [I-41, N-[[-1-[4-[6-(Difluoromethyl)imidazo[1,2-a]pyridin-3-yl]pyrimidin-2-yl]-4,4-difluoro-5-methyl-3-piperidyl]methyl]methanesulfonamide]",IC50,[1]; [2],500 to 5000 nM
same,Ki,GCN2 kinase,< 10 nM
"CC1CN(c2ccnc(-c3cnc4ccc(Cl)cn34)n2)CC(c2cn[nH]c2)N1 (stereo not shown) [I-266, 6-chloro-3-(4-(3-methyl-5-(1H-pyrazol-4-yl)piperazin-1-yl)pyrimidin-2-yl)imidazo[1,2-a]pyridine]",IC50,[1]; [2],< 500 nM
same,IC50,GCN2 kinase,< 10 nM

# Source: patent US10793563B2, “GCN2 inhibitors and uses thereof” (Merck Patent GmbH, priority 2018, dated 2020)
